# Literature values as cited in publication PMC9851200, “Multiparameter phenotypic screening for endogenous TFEB and TFE3 translocation identifies novel chemical series modulating lysosome function” (Autophagy, 2022).
# Assays:
# Design in all cases: method as in original PKIS2 published data
# [1] = target: kinases (KINOMEscan panel) (Homo sapiens, UniProt P0C1S8); settings: WEE2; Published KINOMEscan; ref original PKIS2 published data; cited from earlier work
# [2] = target: T1, kinases (KINOMEscan panel) (Homo sapiens, UniProt Q12866); settings: kinase MERTK; Published KINOMEscan; ref original PKIS2 published data; cited from earlier work
# T1 sequence (Q12866 21-999): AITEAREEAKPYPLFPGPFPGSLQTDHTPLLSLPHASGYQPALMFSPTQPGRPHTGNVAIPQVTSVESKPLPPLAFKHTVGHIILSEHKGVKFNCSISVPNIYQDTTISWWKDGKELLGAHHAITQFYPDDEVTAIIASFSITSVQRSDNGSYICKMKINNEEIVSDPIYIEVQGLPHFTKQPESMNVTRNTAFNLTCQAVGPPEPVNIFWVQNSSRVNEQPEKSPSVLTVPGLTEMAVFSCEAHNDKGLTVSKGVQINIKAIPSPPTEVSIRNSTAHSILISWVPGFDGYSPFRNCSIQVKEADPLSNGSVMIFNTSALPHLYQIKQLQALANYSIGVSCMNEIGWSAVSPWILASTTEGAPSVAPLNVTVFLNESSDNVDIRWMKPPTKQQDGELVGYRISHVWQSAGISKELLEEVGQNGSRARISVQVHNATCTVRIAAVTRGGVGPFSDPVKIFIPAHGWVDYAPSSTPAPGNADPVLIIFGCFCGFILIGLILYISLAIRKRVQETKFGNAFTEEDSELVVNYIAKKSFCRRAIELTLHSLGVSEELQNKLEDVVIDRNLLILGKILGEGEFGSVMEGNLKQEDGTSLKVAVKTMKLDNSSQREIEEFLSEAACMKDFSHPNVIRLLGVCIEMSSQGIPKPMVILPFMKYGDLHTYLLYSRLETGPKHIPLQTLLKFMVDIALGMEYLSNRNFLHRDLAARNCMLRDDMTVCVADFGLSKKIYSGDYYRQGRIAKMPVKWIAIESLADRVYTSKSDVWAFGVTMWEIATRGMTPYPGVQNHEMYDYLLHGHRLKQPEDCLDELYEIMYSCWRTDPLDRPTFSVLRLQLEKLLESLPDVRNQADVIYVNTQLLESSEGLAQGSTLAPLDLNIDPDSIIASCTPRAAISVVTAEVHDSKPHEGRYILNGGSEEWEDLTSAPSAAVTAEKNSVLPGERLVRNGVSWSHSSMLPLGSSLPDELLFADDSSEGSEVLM
# [3] = target: T2, kinases (KINOMEscan panel) (Homo sapiens, UniProt Q96D53); settings: kinase COQ8B; Published KINOMEscan; ref original PKIS2 published data; cited from earlier work
# T2 sequence (Q96D53 1-544): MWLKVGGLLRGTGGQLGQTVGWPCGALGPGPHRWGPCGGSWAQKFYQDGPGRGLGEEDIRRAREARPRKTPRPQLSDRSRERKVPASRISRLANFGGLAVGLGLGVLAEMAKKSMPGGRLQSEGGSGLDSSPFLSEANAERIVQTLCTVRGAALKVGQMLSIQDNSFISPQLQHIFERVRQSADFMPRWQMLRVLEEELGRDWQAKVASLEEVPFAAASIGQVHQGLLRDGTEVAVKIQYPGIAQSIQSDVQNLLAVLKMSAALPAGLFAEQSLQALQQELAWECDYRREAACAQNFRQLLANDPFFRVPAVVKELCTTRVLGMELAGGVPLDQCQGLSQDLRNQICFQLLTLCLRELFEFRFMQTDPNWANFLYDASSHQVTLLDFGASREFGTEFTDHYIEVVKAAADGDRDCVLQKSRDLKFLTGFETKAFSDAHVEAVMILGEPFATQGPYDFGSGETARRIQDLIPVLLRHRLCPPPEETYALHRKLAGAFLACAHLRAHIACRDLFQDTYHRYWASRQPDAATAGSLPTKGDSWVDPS
# [4] = target: T3, kinases (KINOMEscan panel) (Homo sapiens, UniProt Q96PN8); settings: kinase TSSK3; Published KINOMEscan; ref original PKIS2 published data; cited from earlier work
# T3 sequence (Q96PN8 1-268): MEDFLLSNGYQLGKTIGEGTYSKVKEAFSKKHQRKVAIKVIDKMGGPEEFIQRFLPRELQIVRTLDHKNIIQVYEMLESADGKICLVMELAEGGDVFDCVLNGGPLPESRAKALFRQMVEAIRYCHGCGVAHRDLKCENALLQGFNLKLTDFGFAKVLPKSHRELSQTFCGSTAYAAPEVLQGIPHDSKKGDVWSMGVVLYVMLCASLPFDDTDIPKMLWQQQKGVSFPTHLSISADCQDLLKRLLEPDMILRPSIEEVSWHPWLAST
# [5] = target: T4, kinases (KINOMEscan panel) (Homo sapiens, UniProt Q9UQ88); settings: Published KINOMEscan; ref original PKIS2 published data; cited from earlier work
# T4 sequence (Q9UQ88 1-783): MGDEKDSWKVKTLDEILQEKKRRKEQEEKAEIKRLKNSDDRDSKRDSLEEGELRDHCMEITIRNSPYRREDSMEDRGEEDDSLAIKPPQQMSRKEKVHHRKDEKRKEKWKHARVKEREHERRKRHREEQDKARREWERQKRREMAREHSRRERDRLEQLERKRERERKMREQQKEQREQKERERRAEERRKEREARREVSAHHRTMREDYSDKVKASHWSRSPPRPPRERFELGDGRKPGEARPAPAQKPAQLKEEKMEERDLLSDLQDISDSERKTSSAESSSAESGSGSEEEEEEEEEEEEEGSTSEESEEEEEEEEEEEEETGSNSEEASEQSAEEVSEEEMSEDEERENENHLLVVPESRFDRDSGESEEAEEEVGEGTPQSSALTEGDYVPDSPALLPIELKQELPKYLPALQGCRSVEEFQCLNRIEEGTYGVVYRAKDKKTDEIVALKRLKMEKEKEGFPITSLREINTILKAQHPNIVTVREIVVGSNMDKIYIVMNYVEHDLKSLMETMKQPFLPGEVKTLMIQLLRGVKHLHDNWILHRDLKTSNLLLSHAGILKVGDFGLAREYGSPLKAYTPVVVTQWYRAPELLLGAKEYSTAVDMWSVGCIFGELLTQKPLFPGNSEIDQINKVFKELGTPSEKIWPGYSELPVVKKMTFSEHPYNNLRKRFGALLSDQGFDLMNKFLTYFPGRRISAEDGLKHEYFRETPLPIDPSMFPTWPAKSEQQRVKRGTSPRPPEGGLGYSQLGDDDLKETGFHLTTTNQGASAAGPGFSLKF
# kinases (KINOMEscan panel) (Homo sapiens, UniProt P0C1S8), sequence (P0C1S8 whole entry): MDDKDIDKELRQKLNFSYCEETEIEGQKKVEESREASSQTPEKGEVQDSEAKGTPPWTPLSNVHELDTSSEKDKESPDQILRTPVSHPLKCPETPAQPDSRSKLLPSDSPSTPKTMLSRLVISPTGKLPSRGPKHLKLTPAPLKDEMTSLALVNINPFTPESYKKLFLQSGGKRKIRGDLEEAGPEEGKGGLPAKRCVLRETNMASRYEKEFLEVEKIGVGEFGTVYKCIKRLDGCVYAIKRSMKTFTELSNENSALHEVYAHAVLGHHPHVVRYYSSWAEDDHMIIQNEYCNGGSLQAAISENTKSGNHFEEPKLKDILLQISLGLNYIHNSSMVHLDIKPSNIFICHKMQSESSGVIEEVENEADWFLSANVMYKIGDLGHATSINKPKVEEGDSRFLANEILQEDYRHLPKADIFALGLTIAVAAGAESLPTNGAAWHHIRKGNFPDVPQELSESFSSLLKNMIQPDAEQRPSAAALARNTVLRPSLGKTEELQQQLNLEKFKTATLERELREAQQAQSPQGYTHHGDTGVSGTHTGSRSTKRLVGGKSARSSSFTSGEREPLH
smiles,measurement,setting,value
Cc1cccc(-c2nc(Nc3ccncc3)c3ccccc3n2)n1 [NK215],KINOMEscan WEE2,[1],8
same,KINOMEscan MERTK,[2],9
same,KINOMEscan COQ8B,[3],0
same,KINOMEscan TSSK3,[4],0
same,KINOMEscan CDK11A,[5],0
